Article PMC4638363, “Linear Interaction Energy Based Prediction of Cytochrome P450 1A2 Binding Affinities with Reliability Estimation” (PLoS ONE, 2015)
Where two headings read alike, the source gives them in different places.

Columns and labels:
[1] = biological target: T1, human CYP 1A2 (Homo sapiens, UniProt P05177); assay: in-house CYP 1A2 inhibition assay with 7-methoxyresorufin as substrate (resorufin fluorescence); settings: for ΔΔG bind: difference in ΔG bind between literature and in-house determined values; for ΔG bind (inhouse): from in-house IC50 via Cheng-Prusoff and RTln(Ki)
T1 sequence (P05177 1-516): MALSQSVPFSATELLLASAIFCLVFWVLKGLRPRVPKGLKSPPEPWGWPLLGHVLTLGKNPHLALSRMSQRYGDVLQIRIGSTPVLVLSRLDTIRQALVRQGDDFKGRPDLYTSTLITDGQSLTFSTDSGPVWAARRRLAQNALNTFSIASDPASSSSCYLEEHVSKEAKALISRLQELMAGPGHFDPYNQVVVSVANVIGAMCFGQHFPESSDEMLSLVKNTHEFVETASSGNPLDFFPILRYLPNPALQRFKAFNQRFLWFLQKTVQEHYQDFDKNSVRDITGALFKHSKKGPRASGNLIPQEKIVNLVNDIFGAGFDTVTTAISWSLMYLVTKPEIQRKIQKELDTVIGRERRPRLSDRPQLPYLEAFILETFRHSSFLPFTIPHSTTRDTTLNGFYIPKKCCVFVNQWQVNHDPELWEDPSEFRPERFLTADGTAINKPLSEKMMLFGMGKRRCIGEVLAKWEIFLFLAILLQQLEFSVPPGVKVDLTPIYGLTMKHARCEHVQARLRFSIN

[2] = system: recombinant CYP 1A2
[3] = biological target: T1, human CYP 1A2
[4] = system: recombinant CYP 1A2; settings: cited from earlier work
[5] = system: CYP 1A2; settings: cited from earlier work
[6] = system: CYP 1A2; settings: literature; cited from earlier work
[7] = system: CYP 1A2; settings: for ΔG bind (lit): from literature IC50, Source 2 (Ref. 58)
[8] = system: recombinant CYP 1A2; settings: for ΔGbind^Obs: from literature IC50, Source 3
[9] = system: CYP 1A2; settings: Table A, Source 1; ref Bayer HealthCare databases for CYP inhibition (eTOX); cited from earlier work
[10] = read-out: IC 50 (lit), Source 3, recombinant CYP 1A2, 7-ethoxyresorufin O-dealkylation
[11] = read-out: IC 50 (lit), Source 2, recombinant CYPs, phenacetin O-deethylation
[12] = Table A, Source 3, ref Korhonen et al., J. Med. Chem. 2005

## Oc1cccc2ccccc12 [Compound 9, 1-naphthol]
[1]
  IC50: 2 ± 0.7 µM
  ΔΔG bind: 0.287 kcal/mol
  ΔG bind (inhouse): -8.25 ± 0.22 kcal/mol
[2]; human
  ΔG bind (lit): -7.96 ± 0.14 kcal/mol
  ΔGbind^Obs: -7.96 kcal/mol
[3]
  Residual (ΔGbind^Obs–ΔG bind ^Calc), error in prediction: -2.77 kcal/mol
[4]; [10]
  IC50: 3.2 ± 0.8 µM

## O=c1cc(-c2ccccc2)oc2c1ccc1ccccc12 [Compound 7, alpha-Naphthoflavone]
[5]; [11]
  IC50: […]
[6]
  Reported inhibition mechanism: Competitive/uncompetitive^65
[7]
  ΔG bind (lit): […]
[7]; training set, from literature IC50, Source 2
  ΔGbind^Obs: […]

## Cc1cccc2ccccc12 [Compound 28, 1-Methylnaphthalene]
[2]; human
  ΔGbind^Obs: -5.86 kcal/mol
[3]; training set
  Residual (ΔGbind^Obs—ΔGbind^Calc): -0.502 kcal/mol
[4]; [12]
  IC50: 110 µM

## c1ccc2c(c1)CCO2 [Compound 62, 2,3-Dihydrobenzofuran]
[8]; training set
  ΔGbind^Obs: -4.42 kcal/mol
[3]; training set
  Residual (ΔGbind^Obs—ΔGbind^Calc): -0.096 kcal/mol
[4]; [12]
  IC50: 1200 µM

## Cc1cc2ccccc2cn1 [Compound 49, 3-Methylisoquinoline]
[4]; [12]
  IC50: 21 µM

## Cc1ccc(CCN)cc1 [Compound 12, p-tolylethylamine]
[8]; from literature IC50, Source 3 (Ref. 25)
  ΔG bind (lit): -7.07 ± 0.12 kcal/mol
[8]; test set
  ΔGbind^Obs: -7.07 kcal/mol
[1]
  ΔΔG bind: -1.27 kcal/mol
  ΔG bind (inhouse): -5.81 ± 0.17 kcal/mol
[1]; read-out: IC 50 (inhouse), 7-methoxyresorufin at Km 2.5 μM, triplicate
  IC50: 120 ± 33 µM
[3]; test set
  Residual (ΔGbind^Obs–ΔG bind ^Calc), error in prediction: -1.53 kcal/mol
[4]; [10]
  IC50: 14 ± 2.5 µM

## CCCCC1CCCCC1 [Compound 68, Butylcyclohexane]
[8]; training set
  ΔGbind^Obs: -6.26 kcal/mol
[3]; training set
  Residual (ΔGbind^Obs—ΔGbind^Calc): 0.526 kcal/mol
[4]; [12]
  IC50: 55 µM

## Cc1ccc2cccc(C)c2c1 [Compound 41, 1,7-Dimethylnaphthalene]
[2]; human
  ΔGbind^Obs: -7.46 kcal/mol
[3]; test set
  Residual (ΔGbind^Obs–ΔG bind ^Calc), error in prediction: -1.46 kcal/mol
[4]; [12]
  IC50: 7.5 µM

## c1ccc2ccccc2c1 [Compound 27, Naphthalene]
[8]; training set
  ΔGbind^Obs: -4.73 kcal/mol
[3]
  Residual (ΔGbind^Obs—ΔGbind^Calc): -0.55 kcal/mol
[4]; [12]
  IC50: 700 µM

## Cc1cnc2ccccc2c1 [Compound 45, 3-Methylquinoline]
[4]; [12]
  IC50: 13 µM

## Clc1ccc(-c2ccccc2)cc1 [Compound 67, 4-Chlorobiphenyl]
[2]; human
  ΔGbind^Obs: -6.33 kcal/mol
[3]
  Residual (ΔGbind^Obs—ΔGbind^Calc): 0.024 kcal/mol
[4]; [12]
  IC50: 49 µM

## Cc1c2ccncc2c(C)c2c1[nH]c1ccccc12 [Compound 5, Ellipticine]
[1]
  IC50: 0.007 ± 0.002 µM
  ΔΔG bind: 1.65 kcal/mol
  ΔG bind (inhouse): -11.6 ± 0.17 kcal/mol
[5]; [11]
  IC50: 0.11 ± 0.01 µM
[7]
  ΔG bind (lit): -9.99 ± 0.048 kcal/mol

## CCC1CCC(=O)O1 (stereo not shown) [Compound 52, γ-Caprolactone]
[2]; human
  ΔGbind^Obs: -3.15 kcal/mol
[3]
  Residual (ΔGbind^Obs—ΔGbind^Calc): 0.956 kcal/mol
[4]
  IC50: 9900 µM

## COC1=CC(=O)OC1 [Compound 71, 4-Methoxyfuran-2-(5H)-one]
[8]; test set
  ΔGbind^Obs: -2.32 kcal/mol
[3]; test set
  Residual (ΔGbind^Obs–ΔG bind ^Calc), error in prediction: 1.34 kcal/mol
[4]
  IC50: 40000 µM

## Cc1nc2c([nH]1)c(=O)n(C)c(=O)n2Cc1ccco1 [Compound 24, Furafylline]
[5]; Table A, Source 2, ref Cohen et al., Drug Metab. Dispos. 2003
  IC50: […]
[6]
  Reported inhibition mechanism: Mechanism-based^71

## CCCCc1ccccc1 [Compound 69, Butylbenzene]
[2]; human
  ΔGbind^Obs: -3.75 kcal/mol
[3]; test set
  Residual (ΔGbind^Obs–ΔG bind ^Calc), error in prediction: 1.43 kcal/mol
[4]; [12]
  IC50: 3700 µM

## c1ccc(-c2ccccc2)cc1 [Compound 65, Biphenyl]
[2]; human
  ΔGbind^Obs: -5.62 kcal/mol
[3]
  Residual (ΔGbind^Obs—ΔGbind^Calc): -0.12 kcal/mol
[4]
  IC50: 160 µM

## c1ccc2c(c1)CCC2 [Compound 63, Indan]
[2]; human
  ΔGbind^Obs: -4.88 kcal/mol
[4]
  IC50: 550 µM

## C#C[C@]1(O)CC[C@H]2[C@@H]3CCC4=Cc5oncc5C[C@]4(C)[C@H]3CC[C@@]21C [Compound 21, Danazol]
[9]
  IC50: 45.3 µM

## COc1ccc(C=O)cc1 [Compound 11, p-methoxybenzaldehyde]
[1]
  ΔΔG bind: -0.239 kcal/mol
  ΔG bind (inhouse): -5.07 ± 0.048 kcal/mol
[1]; read-out: IC 50 (inhouse)
  IC50: 410 ± 32 µM
[2]
  ΔG bind (lit): -5.31 ± 0.19 kcal/mol
  ΔGbind^Obs: -5.31 kcal/mol
[3]
  Residual (ΔGbind^Obs–ΔG bind ^Calc), error in prediction: -0.43 kcal/mol
[4]; [10]
  IC50: 270 ± 85 µM

## O=c1[nH]c2ccccc2o1 [Compound 64, 2-Benzoxazolinone]
[2]; human
  ΔGbind^Obs: -5.11 kcal/mol
[3]; training set
  Residual (ΔGbind^Obs—ΔGbind^Calc): 0.19 kcal/mol
[4]; [12]
  IC50: 370 µM

## CC1CCC(=O)O1 (stereo not shown) [Compound 51, γ-Valerolactone]
[2]
  ΔGbind^Obs: -2.92 kcal/mol
[3]
  Residual (ΔGbind^Obs—ΔGbind^Calc): 0.86 kcal/mol
[4]; [12]
  IC50: 15000 µM
